In US20230138395A1, “PHARMACEUTICAL COMPOSITIONS OF A THERAPEUTIC POLYENE MACROLIDE AND METHODS OF THEIR USE” (priority 2020, published 2023):
In brackets after ≈: the same amount, converted by molar mass. Several values for one entry are separate records, joined by “and”; a condition that tells them apart may be missing. Equal entries are not always repeated.

What was measured:
[1] = test system: C. glabrata strains; test: MIC testing (CLSI M27-A3); type: cell-based; design: MIC: unit not given beside the values
[2] = test system: C. parapsilosis; test: MIC testing (CLSI M27-A3); type: cell-based; design: MIC: unit not given beside the values
[3] = test system: all Candida strains; test: MFC determination, summary; type: cell-based
[4] = test system: C. krusei strains; test: MIC testing (CLSI M27-A3); type: cell-based
[5] = test system: C. krusei strains; test: MFC determination; type: cell-based
[6] = test system: Candida albicans SC5314; test: Disseminated candidiasis in immunocompromised murine model (BALB/c mice): tissue fungal burden; type: in vivo; settings: Experiment I; 6 mg/kg i.v., 7 days
[7] = test system: C. glabrata strains; test: MFC determination; type: cell-based; design: MFC: unit not given beside the values
[8] = test system: Penicillium strains; test: MFC determination; type: cell-based, Penicillium spp.
[9] = test system: Penicillium strains; test: MIC testing (CLSI M38-A2); type: cell-based, Penicillium spp.; settings: Penicillium
[10] = test system: all Candida strains; test: MIC testing (CLSI M27-A3), summary; type: cell-based
[11] = test system: all Aspergillus strains tested; test: MFC determination, summary; type: cell-based
[12] = test system: individual Aspergillus spp. (Table 15, species not named); test: MFC determination, Table 15; type: cell-based; settings: Aspergillus sp. of Table 15
[13] = test system: Cr. neoformans strains; test: MFC determination; type: cell-based, Cryptococcus neoformans
[14] = test system: Fusarium strains (Table 18); test: MFC determination, Table 18; type: cell-based, Fusarium spp.
[15] = test system: Candida albicans; test: MIC testing (CLSI M27-A3); type: cell-based; design: MIC: unit not given beside the values
[16] = test system: Fusarium strains (Table 18); test: MIC testing (CLSI M38-A2), Table 18; type: cell-based, Fusarium spp.
[17] = test system: Candida albicans; test: MFC determination; type: cell-based
[18] = test system: individual Aspergillus spp. (Table 12, species not named); test: MIC testing (CLSI M38-A2), Table 12; type: cell-based; settings: Aspergillus sp. of Table 12, caspofungin read as MEC
[19] = test system: Cr. neoformans strains; test: MIC testing (CLSI M27-A3, YNB, 72 h); type: cell-based, Cryptococcus neoformans
[20] = test system: Fusarium strains; test: MIC testing (CLSI M38-A2), Table 17; type: cell-based, Fusarium spp.; settings: Fusarium strains (Table 17)
[21] = test system: individual Aspergillus spp. (Table 14, species not named); test: MIC testing (CLSI M38-A2), Table 14; type: cell-based; settings: Aspergillus sp. of Table 14, caspofungin read as MEC
[22] = test system: individual Aspergillus spp. (Table 14, species not named); test: MFC determination, Table 14; type: cell-based; settings: Aspergillus sp. of Table 14
[23] = test system: C. albicans SC5314; test: In vitro activity (MFC) against the infecting strain, Example 18; type: cell-based, Candida albicans; settings: Candida albicans, read-out: MFC
[24] = individual C. krusei strain with elevated MICs to non-polyene comparators (Table 22)
[25] = individual C. albicans strain with elevated MICs to non-polyene comparators (Table 22), listed as Flu

## OC(Cn1cncn1)(Cn1cncn1)c1ccc(F)cc1F [Fluconazole, fluconazole]
[1]; C. glabrata, inhibits 50% of strains
  MIC50: 8 mg/L (≈ 26.1 µM)
[1]; C. glabrata, inhibits 90% of strains
  MIC90: > 64 mg/L
[1]; individual C. glabrata strain with elevated MICs to non-polyene comparators (Table 22), listed as Flu
  MIC: 32 and 2 and >64 (2×) and 8 and 64
[2]; C. parapsilosis, inhibits 50% of strains
  MIC50: 0.5 mg/L (≈ 1.63 µM)
[2]; C. parapsilosis, inhibits 90% of strains
  MIC90: 0.5 mg/L (≈ 1.63 µM)
[2]; individual C. parapsilosis strain with elevated MICs to non-polyene comparators (Table 22), listed as Flu, in µg/mL
  MIC: 0.25 and 0.5 and 1
[3]; kills 50% of strains
  MFC50: > 32 mg/L
[3]; kills 90% of strains
  MFC90: > 32 mg/L
[4]; C. krusei strains, in µg/mL
  MIC Range: 2-32
[4]; C. krusei, inhibits 50% of strains
  MIC50: 16 mg/L (≈ 52.2 µM)
[4]; C. krusei, inhibits 90% of strains
  MIC90: 32 mg/L (≈ 104 µM)
[4]; [24]
  MIC: 16 mg/L (≈ 52.2 µM)
[5]; C. krusei strains, in µg/mL
  MFC Range: >64
[5]; C. krusei, kills 50% of strains
  MFC50: > 64 mg/L
[5]; C. krusei, kills 90% of strains
  MFC90: > 64 mg/L
[5]; [24]
  MFC: > 64 mg/L
[6]
  Brain tissue fungal burden, Mean log CFUs ± the standard deviation: 1.28 ± 1.95 log CFUs
  Kidney tissue fungal burden, Mean log CFUs ± the standard deviation: 3.87 ± 1.53 log CFUs
[7]; C. glabrata strains, in µg/mL
  MFC Range: >64
[7]; C. glabrata, kills 50% of strains
  MFC50: > 64 mg/L
[7]; C. glabrata, kills 90% of strains
  MFC90: > 64 mg/L
[7]; individual C. glabrata strain with elevated MICs to non-polyene comparators (Table 22), in µg/mL
  MFC: >64
[8]; kills 50% of strains
  MFC50: > 64 mg/L
[8]; kills 90% of strains
  MFC90: > 64 mg/L
[9]; inhibits 50% of strains
  MIC50: > 64 mg/L
[9]; inhibits 90% of strains
  MIC90: > 64 mg/L
[10]; inhibits 50% of strains
  MIC50: 0.5 mg/L (≈ 1.63 µM)
[10]; inhibits 90% of strains
  MIC90: > 32 mg/L
[11]
  MFC Range: > 64 mg/L
[11]; kills 50% of strains
  MFC50: > 64 mg/L
[11]; kills 90% of strains
  MFC90: > 64 mg/L
[12]
  MFC Range: > 64 mg/L
[12]; kills 50% of strains
  MFC50: > 64 mg/L
[12]; kills 90% of strains
  MFC90: > 64 mg/L
[13]; Cr. neoformans strains, in µg/mL
  MFC Range: 2
[13]; Cr. neoformans, kills 50% of strains
  MFC50: > 64 mg/L
[13]; Cr. neoformans, kills 90% of strains
  MFC90: > 64 mg/L
[14]
  MFC Range: > 32 mg/L
[14]; kills 50% of strains
  MFC50: > 32 mg/L
[14]; kills 90% of strains
  MFC90: > 32 mg/L
[15]; Fluconazole-susceptible C. albicans n = 13, in µg/mL
  MIC Range: 0.125-0.5
[15]; Fluconazole-susceptible C. albicans n = 13, inhibits 50% of strains
  MIC50: 0.25 mg/L (≈ 0.816 µM)
[15]; Fluconazole-susceptible C. albicans n = 13, inhibits 90% of strains
  MIC90: 0.25 mg/L (≈ 0.816 µM)
[15]; [25]
  MIC: 32 (2×) and >32 (4×) and >64
[16]; in µg/mL
  MIC Range: >32
[16]; inhibits 50% of strains
  MIC50: > 32 mg/L
[16]; inhibits 90% of strains
  MIC90: > 32 mg/L
[17]; Fluconazole-resistant C. albicans n = 7, in µg/mL
  MFC Range: >32
[17]; Fluconazole-susceptible C. albicans n = 13, kills 50% of strains
  MFC50: > 32 mg/L
[17]; Fluconazole-susceptible C. albicans n = 13, kills 90% of strains
  MFC90: > 32 mg/L
[17]; [25]
  MFC: >32 (6×) and >64
[18]; inhibits 50% of strains
  MIC50: > 64 mg/L
[18]; inhibits 90% of strains
  MIC90: > 64 mg/L
[19]; Cr. neoformans strains, 72 h, in µg/mL
  MIC Range: <0.06-16
[19]; Cr. neoformans, inhibits 50% of strains
  MIC50: 2 mg/L (≈ 6.53 µM)
[19]; Cr. neoformans, inhibits 90% of strains
  MIC90: 8 mg/L (≈ 26.1 µM)
[20]; inhibits 50% of strains
  MIC50: > 64 mg/L
[20]; inhibits 90% of strains
  MIC90: > 64 mg/L
[21]; inhibits 50% of strains
  MIC50: > 64 mg/L
[21]; inhibits 90% of strains
  MIC90: > 64 mg/L
[22]
  MFC Range: > 64 mg/L
[22]; kills 50% of strains
  MFC50: > 64 mg/L
[22]; kills 90% of strains
  MFC90: > 64 mg/L
[23]
  MFC: > 64 mg/L
